Measurements taken from EP4291552B1, “MODULATORS OF COMPLEX I” (Boehringer Ingelheim International GmbH, priority 2021, dated 2022).

Test system: mice neuroblastoma cells (HT-22)
Assay: Determination of Cellular Protection (HT22)
Conditions: Mus musculus, HT-22, 16 h, read-out: HT22 IC50

| Structure (SMILES) | IC50 [µM] |
| --- | --- |
| CC(Nc1ccc2c(c1)/C(=C1\COCCN1)C(=O)N2C1CCOCC1)c1ccccn1 (stereo not drawn) [Compound 77] | 0.048 |
| CC(C)N1CCC(Nc2ccc3c(c2)/C(=C2\COCCN2)C(=O)N3C(C)C)CC1 [Compound 96] | 0.041 |
| O=C1C(=C2CCOCC2)c2cc(N3CCCC3)ccc2N1C1CCOCC1 [Compound 112] | 0.086 |
| O=C1/C(=C2/COCCN2)c2cc(N3CCCC3)ccc2N1C1CCOCC1 [Compound 117] | 0.022 |
| CC(C)N1CCN/C(=C2\C(=O)N(C)c3ccc(N4CCCC4)cc32)CC1 [Compound 110] | 0.019 |
| CC(C)Nc1ccc2c(c1)/C(=C1\COCCN1)C(=O)N2[C@H]1CCN(C2COC2)C1 [Compound 69] | 0.141 |
| CC(C)Nc1ccc2c(c1)/C(=C1\CCCN1C)C(=O)N2C(C)C [Compound 115] | 0.03 |
| CC(C)N1C(=O)/C(=C2/CCOCCN2)c2cc(N3C(C)CCC3C)ccc21 (stereo not drawn) [Compound 128] | 0.047 |
| CC(C)N1C(=O)/C(=C2/CCOCCN2)c2cc(NC3CCC3)ccc21 [Compound 22] | 0.011 |
| CC(C)Nc1ccc2c(c1)/C(=C1\COCCN1)C(=O)N2C [Compound 63] | 0.134 |
| CC(C)C(C)Nc1ccc2c(c1)/C(=C1\COCCN1)C(=O)N2C1COC1 (stereo not drawn) [Compound 66] | 0.019 |
| CC(C)N1C(=O)/C(=C2/CCCCN2)c2cc(N3CCOCC3)ccc21 [Compound 158] | 2.07 |
| O=C(CCO)Nc1ccc2c(c1)/C(=C1\COCCN1)C(=O)N2C1CCOC1 (stereo not drawn) [Compound 169] | 0.336 |
| CC(C)Nc1ccc2c(c1)/C(=C1\COC3(CCN(C(C)C)CC3)CN1)C(=O)N2C(C)C [Compound 138] | 0.006 |
| O=C1/C(=C2/COCCN2)c2cc(NC3CCOCC3)ccc2N1C1CCOCC1 [Compound 18] | 0.409 |
| CC(C)Nc1ccc2c(c1)C(=C1CCOCC1)C(=O)N2C(C)C [Compound 47] | 0.085 |
| O=C1/C(=C2/COCCN2)c2cc(NC3CCCC3)ccc2N1C1CCOCC1 [Compound 60] | 0.01 |
| CN1C(=O)/C(=C2/CCN(C3COC3)CCN2)c2cc(N3CCCC3)ccc21 [Compound 45] | 0.261 |
| CC(C)N1C(=O)/C(=C2/COCCN2)c2cc(NCC(C)(C)C)ccc21 [Compound 145] | 0.004 |
| CC(C)Nc1ccc2c(c1)/C(=C1\COCCN1)C(=O)N2C(C)C [Compound 44] | 0.03 |
| CC(C)N1C(=O)C(=C2CCOCC2)c2cc(NC3CCC3)ccc21 [Compound 25] | 0.096 |
| COCC(C)N1C(=O)/C(=C2/COCCN2)c2cc(N3CCCC3)ccc21 (stereo not drawn) [Compound 68] | 0.134 |

| Structure (SMILES) | IC50 [µM] |
| --- | --- |
| CCC(C)Nc1ccc2c(c1)/C(=C1\COCCN1)C(=O)N2C(C)C (stereo not drawn) [Compound 54] | 0.024 |
| O=C1/C(=C2/CCOCCN2)c2cc(NC3CCCC3)ccc2N1C1CCOCC1 [Compound 13] | 0.014 |
| O=C1/C(=C2/COCCN2)c2cc(NC3CCCC3)ccc2N1C1COCCOC1 [Compound 50] | 0.013 |
| O=C1/C(=C2/COCCN2)c2cc(NC3CCC3)ccc2N1C1COC1 [Compound 51] | 0.033 |
| CC(C)C(C)Nc1ccc2c(c1)/C(=C1\COCCN1)C(=O)N2C(C)C (stereo not drawn) [Compound 95] | 0.006 |
| O=C1/C(=C2/COCCN2)c2cc(NC3CCCC3)ccc2N1C1COC1 [Compound 65] | 0.018 |
| CC(Nc1ccc2c(c1)/C(=C1\COCCN1)C(=O)N2C(C)C)c1ccncc1 (stereo not drawn) [Compound 143] | 0.11 |
| CC1OCCC1Nc1ccc2c(c1)/C(=C1\COCCN1)C(=O)N2C(C)C (stereo not drawn) [Compound 125] | 0.112 |
| CC(C)Nc1ccc2c(c1)/C(=C1\CN(C3COC3)CCN1)C(=O)N2C1CCOCC1 [Compound 5] | 0.22 |
| O=C1/C(=C2/COCCN2)c2cc(NC3CCC3)ccc2N1C1CCOC1 (stereo not drawn) [Compound 14] | 0.02 |
| CN1C(=O)/C(=C2/COCCN2)c2cc(NC3CCC3)ccc21 [Compound 154] | 0.018 |
| CC(C)N1C(=O)C(=C2CCOCC2)c2cc(N3CCCC3)ccc21 [Compound 7] | 0.256 |
| CC(C)N1C(=O)/C(=C2/COCCN2)c2cc(NCC3CCOCC3)ccc21 [Compound 75] | 0.073 |
| CC(C)Nc1ccc2c(c1)/C(=C1\COCCN1)C(=O)N2C1CCOC1 (stereo not drawn) [Compound 163] | 0.052 |
| CC(C)N1CCC2(CC1)CN/C(=C1\C(=O)N(C(C)C)c3ccc(N4CCCC4)cc31)CO2 [Compound 91] | 0.009 |
| CC(C)N1C(=O)/C(=C2/COCCN2)c2cc(NCC3CCOC3)ccc21 (stereo not drawn) [Compound 39] | 0.102 |
| CC(C)N1C(=O)/C(=C2/CCCCN2)c2cc(N(C3CCC3)C3CCC3)ccc21 [Compound 113] | 0.018 |
| CCC(CC)Nc1ccc2c(c1)/C(=C1\COCCN1)C(=O)N2C(C)C [Compound 171] | 0.023 |
| CC(C)Nc1ccc2c(c1)/C(=C1\CCOCCN1)C(=O)N2C(C)C [Compound 82] | 0.026 |
| CC(C)N1C(=O)/C(=C2/COCCN2)c2cc(N3CCCC3)ccc21 [Compound 130] | 0.045 |
| CC(C)Nc1ccc2c(c1)/C(=C1\CCCN1C)C(=O)N2C1CCOCC1 [Compound 48] | 0.353 |
| CC(C)Nc1ccc2c(c1)/C(=C1\CN(C(C)C)CCN1)C(=O)N2C1CCN(C(C)C)CC1 [Compound 8] | 0.041 |

| Structure (SMILES) | IC50 [µM] |
| --- | --- |
| COCC(C)Nc1ccc2c(c1)/C(=C1\COCCN1)C(=O)N2C1COC1 (stereo not drawn) [Compound 137] | 0.886 |
| CC(C)N1C(=O)/C(=C2/COCCN2)c2cc(NC3CCOCC3F)ccc21 (stereo not drawn) [Compound 73] | 0.264 |
| COCC(C)N1C(=O)/C(=C2/COCCN2)c2cc(N3CCC(O)C3)ccc21 (stereo not drawn) [Compound 119] | 0.439 |
| CC(C)Nc1ccc2c(c1)/C(=C1\CN(C3CCOCC3)CCN1)C(=O)N2C(C)C [Compound 134] | 0.044 |
| O=C1/C(=C2/COCCN2)c2cc(NCC3CCOC3)ccc2N1C1CCOCC1 (stereo not drawn) [Compound 151] | 0.184 |
| O=C1/C(=C2/CCOCCN2)c2cc(NC3CCC3)ccc2N1C1CCOCC1 [Compound 120] | 0.051 |
| CCC(CC)Nc1ccc2c(c1)/C(=C1\COCCN1)C(=O)N2C1CCOCC1 [Compound 76] | 0.024 |
| COCC(C)N1C(=O)/C(=C2/COCCN2)c2cc(NC(C)C)ccc21 (stereo not drawn) [Compound 28] | 0.118 |
| CC1CCC(C)N1c1ccc2c(c1)/C(=C1\COCCN1)C(=O)N2C1CCOCC1 (stereo not drawn) [Compound 156] | 0.071 |
| CC(C)N1C(=O)/C(=C2/COCCN2)c2cc(NCC3(C)COC3)ccc21 [Compound 127] | 0.176 |
| CC(C)Nc1ccc2c(c1)/C(=C1\CC3(CN1)COC3)C(=O)N2C1CCOCC1 [Compound 165] | 0.253 |
| CN(C)c1ccc2c(c1)/C(=C1\COCCN1)C(=O)N2C [Compound 2] | 1.05 |
| CC(=O)N1CCN/C(=C2\C(=O)N(C3CCOCC3)c3ccc(NC(C)C)cc32)C1 [Compound 111] | 0.249 |
| CN1CCC/C1=C1/C(=O)N(C2CCOCC2)c2ccc(NC3CCOC3)cc21 (stereo not drawn) [Compound 49] | 1.25 |
| CCOC(=O)N1CCC(N2C(=O)/C(=C3/COCCN3)c3cc(NC(C)C)ccc32)CC1 [Compound 10] | 0.031 |
| CN1CCC(Nc2ccc3c(c2)/C(=C2\COCCN2)C(=O)N3C2CCOCC2)CC1 [Compound 150] | 0.286 |
| CN(C)c1ccc2c(c1)/C(=C1\CCCCCN1)C(=O)N2C [Compound 105] | 0.091 |
| CC1CCN(c2ccc3c(c2)/C(=C2\COCCN2)C(=O)N3C2CCOCC2)CC1 [Compound 85] | 0.264 |
| CC(=O)N1CCC(Nc2ccc3c(c2)/C(=C2\COCCN2)C(=O)N3C(C)C)CC1 [Compound 172] | 0.279 |
| CC(=O)N1CCN/C(=C2\C(=O)N(C3CCOCC3)c3ccc(N4CCCC4)cc32)CC1 [Compound 12] | 0.191 |
| CC(C)Nc1ccc2c(c1)/C(=C1\COCCN1)C(=O)N2C1CCOCC1 [Compound 3] | 0.071 |
| CN1C(=O)/C(=C2/CCNCCN2)c2cc(N3CCCC3)ccc21 [Compound 40] | 0.013 |

| Structure (SMILES) | IC50 [µM] |
| --- | --- |
| CC(C)Nc1ccc2c(c1)/C(=C1\COCCN1)C(=O)N2C1COCCOC1 [Compound 26] | 0.059 |
| O=C1/C(=C2/COCCN2)c2cc(NC3CCOCC3)ccc2N1C1CCOC1 (stereo not drawn) [Compound 32] | 0.205 |
| CC(C)Nc1ccc2c(c1)/C(=C1\CCN(C(C)C)CCN1)C(=O)N2C1CCOCC1 [Compound 164] | 0.03 |
| CN(C)c1ccc2c(c1)/C(=C1\CCCN1)C(=O)N2C [Compound 1] | 0.282 |
| CC1CCCC1Nc1ccc2c(c1)/C(=C1\COCCN1)C(=O)N2C(C)C (stereo not drawn) [Compound 124] | 0.015 |
| COCC(C)Nc1ccc2c(c1)/C(=C1\COCCN1)C(=O)N2C1CCOCC1 (stereo not drawn) [Compound 99] | 0.163 |
| CC(Nc1ccc2c(c1)/C(=C1\COCCN1)C(=O)N2C(C)C)c1ccccn1 (stereo not drawn) [Compound 71] | 0.131 |
| CC(C)C(C)Nc1ccc2c(c1)/C(=C1\COCCN1)C(=O)N2C1COCCOC1 (stereo not drawn) [Compound 27] | 0.015 |
| CN1CCN/C(=C2\C(=O)N(C)c3ccc(N4CCCC4)cc32)CC1 [Compound 64] | 0.065 |
| CC(Nc1ccc2c(c1)/C(=C1\COCCN1)C(=O)N2C(C)C)c1ccnn1C (stereo not drawn) [Compound 17] | 0.159 |
| CC(Nc1ccc2c(c1)/C(=C1\COCCN1)C(=O)N2C(C)C)c1cnccn1 (stereo not drawn) [Compound 57] | 0.199 |
| CC(=O)N1CC[C@H](N2C(=O)/C(=C3/COCCN3)c3cc(NC(C)C)ccc32)C1 [Compound 170] | 0.159 |
| O=C1/C(=C2/COCCN2)c2cc(NCC3CC3)ccc2N1C1CCOCC1 [Compound 103] | 0.105 |
| O=C1/C(=C2/CC3(CN2)COC3)c2cc(NC3CCOC3)ccc2N1C1CCOCC1 (stereo not drawn) [Compound 70] | 1.15 |
| CC(C)Nc1ccc2c(c1)/C(=C1\COCCN1)C(=O)N2C1COC1 [Compound 135] | 0.158 |
| CC(Nc1ccc2c(c1)/C(=C1\COCCN1)C(=O)N2C(C)C)C1CC1 (stereo not drawn) [Compound 97] | 0.017 |
| CC(C)N1C(=O)/C(=C2/COCCN2)c2cc(NCC3CC3)ccc21 [Compound 58] | 0.019 |
| CC(C)CNc1ccc2c(c1)/C(=C1\COCCN1)C(=O)N2C(C)C [Compound 173] | 0.032 |
| CN1CCC/C1=C1/C(=O)N(C2CCOCC2)c2ccc(NC3CCC3)cc21 [Compound 9] | 0.038 |
| CC(Nc1ccc2c(c1)/C(=C1\COCCN1)C(=O)N2C(C)C)c1cccnc1 (stereo not drawn) [Compound 15] | 0.115 |
| CC(C)N1C(=O)/C(=C2/COCCN2)c2cc(NC3CCC(F)(F)CC3)ccc21 [Compound 72] | 0.006 |
